Experiment: Random venous lactic acid measurement
Type: in vivo, human
Conditions: for months after resuming therapy; normal range 0.5-2.1 mmol/L
From the text: Venous specimens for lactic acid determination were collected in sodium fluoride/potassium oxalate tubes, with normal tourniquet and no specific patient instruction other than the avoidance of first clenching or hand pumping. […]

venous lactate levels: remained within the normal range
Structure (SMILES): Cc1cn([C@H]2C[C@H](N=[N+]=[N-])[C@@H](CO)O2)c(=O)[nH]c1=O [zidovudine]
